Data reported in ChEMBL document CHEMBL5030546, “Synthesis of thiocolchicine amine derivatives and evaluation of their antiproliferative activity” (Bioorg Med Chem Lett, 2021).

Columns and labels:
cells = assay type: functional, cell-based; details: Homo sapiens, LoVo/DX, 72 h
Description: Antiproliferative activity against human Lovo/DX cells assessed as inhibition of cell proliferation incubated for 72 hrs by SRB assay

LoVo = experiment: cells; assay type: functional, cell-based; details: Homo sapiens, 72 h
Description: Antiproliferative activity against human LoVo cells assessed as inhibition of cell proliferation incubated for 72 hrs by SRB assay

[1] = Resistance index, ratio of IC50 for human LoVo/DX cells to IC50 for human LoVo cells; assay type: functional
BALB/3T3 = experiment: Cytotoxicity against mouse BALB/3T3 cells assessed as reduction in cell viability incubated for 72 hrs by SRB assay; assay type: ADME, cell-based; details: BALB/3T3, 72 h
MCF7 = experiment: cells; assay type: functional, cell-based; details: Homo sapiens, MCF7, 72 h
Description: Antiproliferative activity against human MCF7 cells assessed as inhibition of cell proliferation incubated for 72 hrs by SRB assay

A549 = experiment: cells; assay type: functional, cell-based; details: Homo sapiens, A549, 72 h
Description: Antiproliferative activity against human A549 cells assessed as inhibition of cell proliferation incubated for 72 hrs by SRB assay

[2] = Selectivity index, ratio of IC50 for mouse BALB/3T3 cells to IC50 for human LoVo/DX cells; assay type: toxicity; details: BALB/3T3 cells versus LoVo/DX cells, read-out: Ratio IC50
[3] = Selectivity index, ratio of IC50 for mouse BALB/3T3 cells to IC50 for human LoVo cells; assay type: toxicity; details: BALB/3T3 cells versus LoVo cells, read-out: Ratio IC50
[4] = Selectivity index, ratio of IC50 for mouse BALB/3T3 cells to IC50 for human MCF7 cells; assay type: toxicity; details: BALB/3T3 cells versus MCF7 cells, read-out: Ratio IC50
[5] = Selectivity index, ratio of IC50 for mouse BALB/3T3 cells to IC50 for human A549 cells; assay type: toxicity; details: BALB/3T3 cells versus A549 cells, read-out: Ratio IC50

CCN[C@H]1CCc2cc(OC)c(OC)c(OC)c2-c2ccc(SC)c(=O)cc21
IC50 (cells): 54.9 nM | IC50 (LoVo): 6.5 nM | Ratio IC50 [1]: 8.5 | IC50 (BALB/3T3): 10.2 nM | IC50 (MCF7): 10.3 nM | IC50 (A549): 10.8 nM

COc1cc2c(c(OC)c1OC)-c1ccc(SC)c(=O)cc1[C@@H](NCc1ccc(F)cc1)CC2
IC50 (cells): 33.2 nM | IC50 (LoVo): 7.6 nM | Ratio IC50 [1]: 4.4 | IC50 (BALB/3T3): 11.7 nM | IC50 (MCF7): 11.2 nM | IC50 (A549): 9.6 nM

CCCC(C)CN[C@H]1CCc2cc(OC)c(OC)c(OC)c2-c2ccc(SC)c(=O)cc21 (stereo partly specified)
IC50 (cells): 70.2 nM | IC50 (LoVo): 12 nM | Ratio IC50 [1]: 5.8 | IC50 (BALB/3T3): 78.5 nM | IC50 (MCF7): 17.8 nM | IC50 (A549): 11 nM

COc1cc2c(c(OC)c1OC)-c1ccc(SC)c(=O)cc1[C@@H](NCc1ccncc1)CC2
IC50 (cells): 56.2 nM | IC50 (LoVo): 7.8 nM | Ratio IC50 [1]: 7.2 | IC50 (BALB/3T3): 10.9 nM | IC50 (MCF7): 9.7 nM | IC50 (A549): 10.9 nM

COc1cc2c(c(OC)c1OC)-c1ccc(SC)c(=O)cc1[C@@H](NCc1ccccc1O)CC2
IC50 (cells): 41.7 nM | IC50 (LoVo): 9.4 nM | Ratio IC50 [1]: 4.5 | IC50 (BALB/3T3): 8.8 nM | IC50 (MCF7): 10.3 nM | IC50 (A549): 9.3 nM

CCCCCN[C@H]1CCc2cc(OC)c(OC)c(OC)c2-c2ccc(SC)c(=O)cc21
IC50 (cells): 77.8 nM | IC50 (LoVo): 52.8 nM | Ratio IC50 [1]: 1.5 | IC50 (BALB/3T3): 99.4 nM | IC50 (MCF7): 92.7 nM | IC50 (A549): 89.5 nM

COc1cc(CN[C@H]2CCc3cc(OC)c(OC)c(OC)c3-c3ccc(SC)c(=O)cc32)ccc1O
selectivity ratio [2]: 4.5 | selectivity ratio [3]: 7.2 | IC50 (cells): 85.6 nM | IC50 (LoVo): 53.3 nM | Ratio IC50 [1]: 1.8 | IC50 (BALB/3T3): 385 nM | IC50 (MCF7): 8.2 nM | IC50 (A549): 7.1 nM | selectivity ratio [4]: 46.9 | selectivity ratio [5]: 54.2

CCCCN[C@H]1CCc2cc(OC)c(OC)c(OC)c2-c2ccc(SC)c(=O)cc21
IC50 (cells): 17.9 nM | IC50 (LoVo): 8.8 nM | Ratio IC50 [1]: 2 | IC50 (BALB/3T3): 11.7 nM | IC50 (MCF7): 12.2 nM | IC50 (A549): 10.9 nM

COc1ccc(CN[C@H]2CCc3cc(OC)c(OC)c(OC)c3-c3ccc(SC)c(=O)cc32)cc1O
IC50 (cells): 69.4 nM | IC50 (LoVo): 8.8 nM | Ratio IC50 [1]: 7.9 | IC50 (BALB/3T3): 10.8 nM | IC50 (MCF7): 10.3 nM | IC50 (A549): 10.8 nM

COc1cc2c(c(OC)c1OC)-c1ccc(SC)c(=O)cc1[C@@H](NCc1ccc(Cl)cc1)CC2
IC50 (cells): 64.9 nM | IC50 (LoVo): 37 nM | Ratio IC50 [1]: 1.8 | IC50 (BALB/3T3): 88.2 nM | IC50 (MCF7): 73.4 nM | IC50 (A549): 70.5 nM

COc1cc2c(c(OC)c1OC)-c1ccc(SC)c(=O)cc1[C@@H](NCc1ccc(I)cc1)CC2
IC50 (cells): 234 nM | IC50 (LoVo): 72.4 nM | Ratio IC50 [1]: 3.2 | IC50 (BALB/3T3): 119 nM | IC50 (MCF7): 84.2 nM | IC50 (A549): 101 nM

COc1cc2c(c(OC)c1OC)-c1ccc(SC)c(=O)cc1[C@@H](NCCc1ccccc1)CC2
IC50 (cells): 66.9 nM | IC50 (LoVo): 10.7 nM | Ratio IC50 [1]: 6.2 | IC50 (BALB/3T3): 61.2 nM | IC50 (MCF7): 11.4 nM | IC50 (A549): 10.7 nM

COc1cc2c(c(OC)c1OC)-c1ccc(SC)c(=O)cc1[C@@H](NCC(C)C)CC2
IC50 (cells): 10.2 nM | IC50 (LoVo): 8.5 nM | Ratio IC50 [1]: 1.2 | IC50 (BALB/3T3): 11 nM | IC50 (MCF7): 11.3 nM | IC50 (A549): 10.5 nM

COc1cc2c(c(OC)c1OC)-c1ccc(SC)c(=O)cc1[C@@H](NCc1ccccc1)CC2
IC50 (cells): 13.9 nM | IC50 (LoVo): 7.9 nM | Ratio IC50 [1]: 1.8 | IC50 (BALB/3T3): 9.8 nM | IC50 (MCF7): 10.3 nM | IC50 (A549): 9.6 nM

CCCN[C@H]1CCc2cc(OC)c(OC)c(OC)c2-c2ccc(SC)c(=O)cc21
IC50 (cells): 31.1 nM | IC50 (LoVo): 8.5 nM | Ratio IC50 [1]: 3.7 | IC50 (BALB/3T3): 14.3 nM | IC50 (MCF7): 12 nM | IC50 (A549): 11.6 nM

CCCCCCN[C@H]1CCc2cc(OC)c(OC)c(OC)c2-c2ccc(SC)c(=O)cc21
IC50 (cells): 72.7 nM | IC50 (LoVo): 83 nM | Ratio IC50 [1]: 0.9 | IC50 (BALB/3T3): 107 nM | IC50 (MCF7): 109 nM | IC50 (A549): 104 nM

CCCCCCCCN[C@H]1CCc2cc(OC)c(OC)c(OC)c2-c2ccc(SC)c(=O)cc21
IC50 (cells): 693 nM | IC50 (LoVo): 903 nM | Ratio IC50 [1]: 0.8 | IC50 (BALB/3T3): 1040 nM | IC50 (MCF7): 1120 nM | IC50 (A549): 1010 nM

COc1cc2c(c(OC)c1OC)-c1ccc(SC)c(=O)cc1[C@@H](NCCC(C)C)CC2
IC50 (cells): 9.4 nM | IC50 (LoVo): 8.4 nM | Ratio IC50 [1]: 1 | IC50 (BALB/3T3): 13.3 nM | IC50 (MCF7): 12 nM | IC50 (A549): 13.1 nM

COc1cc2c(c(OC)c1OC)-c1ccc(SC)c(=O)cc1[C@@H](NC/C=C/c1ccccc1)CC2
IC50 (cells): 210 nM | IC50 (LoVo): 79.2 nM | Ratio IC50 [1]: 2.7 | IC50 (BALB/3T3): 98.6 nM | IC50 (MCF7): 102 nM | IC50 (A549): 95 nM

COc1cc2c(c(OC)c1OC)-c1ccc(SC)c(=O)cc1[C@@H](NCc1cccc(CN[C@H]3CCc4cc(OC)c(OC)c(OC)c4-c4ccc(SC)c(=O)cc43)n1)CC2
IC50 (cells): 400 nM | IC50 (LoVo): 27.9 nM | Ratio IC50 [1]: 14.3 | IC50 (BALB/3T3): 50.3 nM | IC50 (MCF7): 7.7 nM | IC50 (A549): 47.3 nM

COc1cc2c(c(OC)c1OC)-c1ccc(SC)c(=O)cc1[C@@H](NCc1ccc(C)cc1)CC2
IC50 (cells): 52.3 nM | IC50 (LoVo): 47.6 nM | Ratio IC50 [1]: 1.1 | IC50 (BALB/3T3): 85.4 nM | IC50 (MCF7): 100 nM | IC50 (A549): 83.4 nM

CCCCCCCCCCCCN[C@H]1CCc2cc(OC)c(OC)c(OC)c2-c2ccc(SC)c(=O)cc21
IC50 (cells): 1980 nM | IC50 (LoVo): 453 nM | Ratio IC50 [1]: 4.4 | IC50 (BALB/3T3): 1070 nM | IC50 (MCF7): 719 nM | IC50 (A549): 152 nM

COc1cc2c(c(OC)c1OC)-c1ccc(OC)c(=O)cc1[C@@H](NC(C)=O)CC2 [COLCHICINE]
IC50 (cells): 967 nM | IC50 (LoVo): 12.7 nM | IC50 (BALB/3T3): 82.3 nM | IC50 (A549): 19.3 nM

COc1cccc2c1C(=O)c1c(O)c3c(c(O)c1C2=O)C[C@@](O)(C(=O)CO)C[C@@H]3O[C@H]1C[C@H](N)[C@H](O)[C@H](C)O1 [DOXORUBICIN]
IC50 (cells): 3960 nM | IC50 (LoVo): 71 nM | Ratio IC50 [1]: 56 | IC50 (BALB/3T3): 315 nM | IC50 (MCF7): 146 nM | IC50 (A549): 149 nM
